Experimental data reported in publication PMC6576746, “Rational discovery of dual-indication multi-target PDE/Kinase inhibitor for precision anti-cancer therapy using structural systems pharmacology” (PLoS Computational Biology, 2019).

What was measured:
Assay in all cases: cells
Parameters in all cases: species or system panel of human cancer cell lines; Eurofins OncoPanel proliferation; nuclei count by high-content fluorescence imaging, 10-point dose response
A-253 = conditions: Homo sapiens, A253, 72 h, cell count, 3 days
In short: (§1)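 Ten half-log concentrations from 100 μM (0.1% DMSO max) applied one day post-seeding, 3-day exposure at 37°C; untreated time-zero plate for GI50. Readout is nuclear cell count by automated fluorescence imaging, giving EC50, IC50, GI50 and 0–10 activity area.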

Calu6 = conditions: Homo sapiens, Calu-6, 72 h, cell count, 3 days
In short: as §1

Capan-2 = conditions: Homo sapiens, Capan-2, 72 h, cell count, 3 days
In short: as §1

FaDu = conditions: Homo sapiens, FaDu, 72 h, cell count, 3 days
In short: as §1

HT-3 = conditions: Homo sapiens, HT-3, 72 h, cell count, 3 days
In short: as §1

HepG2 = conditions: Homo sapiens, HepG2, 72 h, cell count, 3 days
In short: as §1

Hs 895.T = conditions: 72 h, cell count, 3 days
In short: as §1

J-RT3-T3-5 = conditions: Homo sapiens, J-RT3-T3-5, 72 h, cell count, 3 days
In short: as §1

KU812 = conditions: Homo sapiens, KU812, 72 h, cell count, 3 days
In short: as §1

Mia PaCa-2 = conditions: Homo sapiens, MIA PaCa-2, 72 h, cell count, 3 days
In short: as §1

OVCAR3 = conditions: Homo sapiens, OVCAR-3, 72 h, cell count, 3 days
In short: as §1

SW403 = conditions: Homo sapiens, SW-403, 72 h, cell count, 3 days
In short: as §1

SW837 = conditions: Homo sapiens, SW837, 72 h, cell count, 3 days
In short: as §1

TUR = conditions: 72 h, cell count, 3 days
In short: as §1

[1] = 50% of maximum possible response

IC50 (Calu6; [1]): > 100 µM
GI50 (Calu6; corrected for time zero): 91.5 µM
EC50 (Calu6; curve inflection point): > 100 µM
IC50 (HepG2; [1]): 42.1 µM
GI50 (HepG2; corrected for time zero): 36.7 µM
EC50 (HepG2; curve inflection point): 42.1 µM
IC50 (Mia PaCa-2; [1]): 11 µM
GI50 (Mia PaCa-2; corrected for time zero): 9.38 µM
EC50 (Mia PaCa-2; curve inflection point): 9.92 µM
IC50 (OVCAR3; [1]): 42.6 µM
GI50 (OVCAR3; corrected for time zero): 24.1 µM
EC50 (OVCAR3; curve inflection point): 42.6 µM
IC50 (SW403; [1]): 33.2 µM
GI50 (SW403; corrected for time zero): 14.4 µM
EC50 (SW403; curve inflection point): 28.7 µM
IC50 (SW837; [1]): 37.5 µM
GI50 (SW837; corrected for time zero): 31.8 µM
EC50 (SW837; curve inflection point): 33.3 µM
SMILES: C[C@@H]1CC(=O)NN=C1c1ccc(NN=C(C#N)C#N)cc1 [levosimendan]
IC50 (A-253; [1]): 62.4 µM
GI50 (A-253; corrected for time zero): 41.7 µM
EC50 (A-253; curve inflection point): 62.4 µM
IC50 (Capan-2; [1]): 49.7 µM
GI50 (Capan-2; corrected for time zero): 42.3 µM
EC50 (Capan-2; curve inflection point): 49.7 µM
IC50 (FaDu; [1]): 63.1 µM
GI50 (FaDu; corrected for time zero): 56.4 µM
EC50 (FaDu; curve inflection point): 63.1 µM
IC50 (HT-3; [1]): 91.3 µM
GI50 (HT-3; corrected for time zero): 48.5 µM
EC50 (HT-3; curve inflection point): 91.3 µM
IC50 (Hs 895.T; [1]): > 100 µM
GI50 (Hs 895.T; corrected for time zero): 32.8 µM
EC50 (Hs 895.T; curve inflection point): > 100 µM
IC50 (J-RT3-T3-5; [1]): 24.4 µM
GI50 (J-RT3-T3-5; corrected for time zero): 18.4 µM
EC50 (J-RT3-T3-5; curve inflection point): 24.4 µM
IC50 (KU812; [1]): 70.3 µM
GI50 (KU812; corrected for time zero): 48.8 µM
EC50 (KU812; curve inflection point): 70.3 µM
IC50 (TUR; [1]): 6.72 µM
GI50 (TUR; corrected for time zero): 5.98 µM
EC50 (TUR; curve inflection point): 6.49 µM
